The compounds below were run against α5β3γ2 GABAA R (Homo sapiens, UniProt P18507+P31644) (assay: Binding activity on GABAA R: inhibition of [3H]Ro15-1788 binding, α5 containing receptor). Conditions: not given.
Method: Tissue culture and Membrane Preparation: The binding was performed on Ltk cells stably expressing GABAA R: […], α2β3γ2, α3β3γ2 and α5β3γ2 (provided by Merck Co., NJ, USA). Cells were seeded in 100 mm culture plates in DMEM/F12 medium containing 10% serum and antibiotics in 5% CO2 and allowed to grow for 1-2 days. GABAAR expression was then induced by dexamethasone as follows: 0.5 μM for 1 day for α5 containing and 2 μM for 3 days for α1, α2 and α3 containing GABAARs. After induction, cells were collected by scraping into Dulbecco's Phosphate buffered saline (DPBS, pH 7.4, Invitrogen, Carlsbad, CA, USA) and centrifuged at 150×g for 10 min. The pellet was washed twice by re-suspension and centrifugation. The cell pellets from at least 5 different preps were combined, suspended in the binding assay buffer (50 mM KH2PO4; 1 mM EDTA; 0.2 M KCl, pH 7.4) and membranes prepared by sonication (3-5 times, 30 sec) using Branson Sonifier 150 (G. Heinmann, Germany). Protein content was determined using BCA assay (Bio-Rad Labs, Reinach, Switzerland) with Bovine Serum Albumin (Sigma Aldrich, St. Louis, MO, USA) as the standard. Aliquots were prepared and stored at −20° C. for further use in binding assays.
Ligand Binding: Saturation binding curves were obtained by incubating membranes with increasing concentrations (0.01-8 nM) of [^3H]Rol5-1788 (Flumazepil, 75-85 Ci/mmol, PerkinElmer, MA, USA), with nonspecific binding measured in the presence of 10 μM diazepam.
All binding assays were performed for 1 h at 4° C. in assay buffer. The total assay volume was 0.5 ml containing 0.2 mg/ml protein for α5 and 0.4 mg/ml for α1, α2, and α3 containing GABAAR membranes. Incubations were terminated by filtration through GF/B filters using a 24-Cell Harvestor (Brandel, Gaithersburg, MD, USA) followed by 3 washes with ice-cold assay buffer. Filters were transferred to scintillation vials, 5 ml scintillation liquid added, vortex-mixed and kept in dark. Next day, radioactivity was obtained using a scintillation counter (Beckman Coulter, Brea, CA, USA). All assays were performed in triplicate.
Data Analyses: Saturation and inhibition curves were obtained using GraphPad Prism software (GraphPad Software, Inc., CA, USA).

Sequence of α5β3γ2 GABAA R (P31644 32-462): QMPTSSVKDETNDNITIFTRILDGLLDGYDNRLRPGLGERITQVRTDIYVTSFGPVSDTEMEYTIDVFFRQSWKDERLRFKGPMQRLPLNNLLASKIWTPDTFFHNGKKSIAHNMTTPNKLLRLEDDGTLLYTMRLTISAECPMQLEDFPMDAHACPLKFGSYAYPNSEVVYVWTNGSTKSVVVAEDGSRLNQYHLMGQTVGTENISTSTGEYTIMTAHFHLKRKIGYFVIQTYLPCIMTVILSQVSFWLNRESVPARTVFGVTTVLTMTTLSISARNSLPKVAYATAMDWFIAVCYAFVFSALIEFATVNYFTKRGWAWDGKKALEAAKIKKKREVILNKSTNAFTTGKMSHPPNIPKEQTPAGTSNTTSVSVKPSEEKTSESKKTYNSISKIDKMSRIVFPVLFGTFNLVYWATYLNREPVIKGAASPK
Sequence of α5β3γ2 GABAA R (P28472 26-473 partner): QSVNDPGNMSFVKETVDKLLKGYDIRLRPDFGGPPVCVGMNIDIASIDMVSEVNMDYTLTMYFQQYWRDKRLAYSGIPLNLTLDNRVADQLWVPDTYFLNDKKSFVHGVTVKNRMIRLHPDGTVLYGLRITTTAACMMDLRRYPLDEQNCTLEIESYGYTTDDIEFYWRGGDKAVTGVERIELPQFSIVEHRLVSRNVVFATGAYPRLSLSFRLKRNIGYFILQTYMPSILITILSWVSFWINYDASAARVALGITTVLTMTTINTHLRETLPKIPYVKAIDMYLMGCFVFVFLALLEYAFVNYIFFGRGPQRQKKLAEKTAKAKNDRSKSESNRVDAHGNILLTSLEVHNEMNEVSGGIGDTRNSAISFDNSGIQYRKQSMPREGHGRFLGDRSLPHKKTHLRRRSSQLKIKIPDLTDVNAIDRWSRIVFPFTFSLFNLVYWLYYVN
Sequence of α5β3γ2 GABAA R (P18507 40-475): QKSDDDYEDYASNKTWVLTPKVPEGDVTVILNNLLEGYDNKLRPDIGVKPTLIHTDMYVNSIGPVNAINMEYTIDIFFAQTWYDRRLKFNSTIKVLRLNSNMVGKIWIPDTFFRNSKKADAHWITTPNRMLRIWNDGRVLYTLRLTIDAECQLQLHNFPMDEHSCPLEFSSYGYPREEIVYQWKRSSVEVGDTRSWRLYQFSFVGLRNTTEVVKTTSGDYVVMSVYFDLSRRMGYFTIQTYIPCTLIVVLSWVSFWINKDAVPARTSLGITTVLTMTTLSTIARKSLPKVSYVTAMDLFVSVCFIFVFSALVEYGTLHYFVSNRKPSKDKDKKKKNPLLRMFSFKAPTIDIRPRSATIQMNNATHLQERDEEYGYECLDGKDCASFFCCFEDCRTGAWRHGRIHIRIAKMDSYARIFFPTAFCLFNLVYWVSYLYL

| SMILES | Ki |
| --- | --- |
| Cc1noc(-c2ncn3c2Cc2cn(C(C)C)nc2-c2cc(Cl)ccc2-3)n1 [Compound 160] | < 100 nM |
| COc1ccc2c(c1)-c1nn(C)cc1Cc1c(-c3nc(C4CCOCC4)no3)ncn1-2 [Compound 220] | < 100 nM |
| COc1ccc2c(c1)-c1[nH]ncc1Cc1c(-c3nc(C4CCOC4)no3)ncn1-2 (centres unmarked) [Compound 100] | < 100 nM |
| COCc1nc(-c2ncn3c2Cc2cn(C)nc2-c2cc(Cl)ccc2-3)no1 [Compound 155] | < 100 nM |
| COc1ccc2c(c1)-c1[nH]ncc1Cc1c(C#Cc3cccnc3)ncn1-2 [Compound 91] | < 100 nM |
| Clc1ccc2c(c1)-c1[nH]ncc1Cc1c(C#Cc3cccnc3)ncn1-2 [Compound 64] | < 100 nM |
| COc1ccc2c(c1)-c1nn(C)cc1Cc1c(-c3ncc(C)o3)ncn1-2 [Compound 286] | < 100 nM |
| COc1ccc2c(c1)-c1[nH]ncc1Cc1c(-c3noc(C(C)C)n3)ncn1-2 [Compound 54] | < 100 nM |
| COc1ccc(C#Cc2ncn3c2Cc2cn[nH]c2-c2cc(OC)ccc2-3)nc1 [Compound 53] | < 100 nM |
| COC1(c2nc(-c3ncn4c3Cc3cn(CC5CCCO5)nc3-c3cc(Cl)ccc3-4)no2)CC1 (centres unmarked) [Compound 322] | < 100 nM |
| CC(C)c1noc(-c2cnc3n2CC(=O)N(C)c2cc(Cl)ccc2-3)n1 [Compound 31] | > 1000 nM |
| COc1ccc2c(c1)-c1nn(C)cc1Cc1c(-c3nc(C4(C)CCOCC4)no3)ncn1-2 [Compound 352] | < 100 nM |
| COc1ccc2c(c1)-c1[nH]ncc1Cc1c(-c3ncco3)ncn1-2 [Compound 71] | < 100 nM |
| COc1ccc2c(c1)-c1nn(C)cc1Cc1c(-c3noc(Cn4cccc4)n3)ncn1-2 [Compound 360] | < 100 nM |
| COc1ccc(Cn2ncc3c2-c2cc(OC)ccc2-n2cnc(C#Cc4ccc(OC)nc4)c2C3)cc1 [Compound 36] | 100 to 1000 nM |
| COc1ccc2c(c1)-c1nn(C)cc1Cc1c(-c3noc(C(C)(C)CO)n3)ncn1-2 [Compound 376] | < 100 nM |
| Cn1cc2c(n1)-c1cc(Cl)ccc1-n1cnc(C3=NC4(COC4)CO3)c1C2 [Compound 182] | < 100 nM |
| Cn1cc2c(n1)-c1cc(Cl)ccc1-n1cnc(-c3noc(Cn4cccn4)n3)c1C2 [Compound 372] | < 100 nM |
| COc1ccc2c(c1)-c1nn(C)cc1Cc1c(-c3noc(C4(OC(C)C)CC4)n3)ncn1-2 [Compound 370] | < 100 nM |
| COc1cccc(Cn2cc(-c3ncn4c3Cc3cn(CC5CCCO5)nc3-c3cc(Cl)ccc3-4)cn2)n1 (centres unmarked) [Compound 337] | < 100 nM |
| COc1ccc2c(c1)-c1nn(C)cc1Cc1c(-c3nc(CN(C(C)C)C(C)C)co3)ncn1-2 [Compound 380] | < 100 nM |

| SMILES | Ki |
| --- | --- |
| Clc1ccc2c(c1)-c1nn(CC3CCCO3)cc1Cc1c(-c3noc(C4CCOCC4)n3)ncn1-2 (centres unmarked) [Compound 362] | < 100 nM |
| COc1ccc2c(c1)-c1c(cnn1Cc1ccccc1)Cc1c(-c3nc(C(C)C)no3)ncn1-2 [Compound 8] | 100 to 1000 nM |
| Clc1ccc2c(c1)-c1[nH]ncc1Cc1c(-c3nc(C4CCC4)no3)ncn1-2 [Compound 107] | < 100 nM |
| COCC(C)(C)c1nc(-c2ncn3c2Cc2cn(C)nc2-c2cc(OC)ccc2-3)no1 [Compound 377] | < 100 nM |
| COc1ccc2c(c1)-c1nn(C)cc1Cc1c(-c3noc(C4(O)CCCC4)n3)ncn1-2 [Compound 384] | < 100 nM |
| Cc1noc(-c2ncn3c2Cc2cnn(C)c2-c2cc(Cl)ccc2-3)n1 [Compound 3] | < 100 nM |
| COc1ccc2c(c1)-c1nn(Cc3ccccc3)cc1Cc1c(-c3nc(C(C)(C)C)no3)ncn1-2 [Compound 17] | < 100 nM |
| COc1ccc2c(c1)-c1nn(C)cc1Cc1c(-c3noc(CCN4CCCC4=O)n3)ncn1-2 [Compound 369] | < 100 nM |
| CC1(c2nc(-c3ncn4c3Cc3cn(CC5CCCO5)nc3-c3cc(Cl)ccc3-4)no2)CCOCC1 (centres unmarked) [Compound 365] | < 100 nM |
| Cn1cc2c(n1)-c1cc(Cl)ccc1-n1cnc(-c3noc(Cn4cccc4)n3)c1C2 [Compound 371] | < 100 nM |
| COc1ccc2c(c1)-c1nn(C)cc1Cc1c(-c3nc(C(C)(C)OC)no3)ncn1-2 [Compound 335] | < 100 nM |
| Cn1cc2c(n1)-c1cc(Cl)ccc1-n1cnc(-c3noc(CN4CCCC4=O)n3)c1C2 [Compound 382] | < 100 nM |
| CCOC(C)(C)c1nc(-c2ncn3c2Cc2cn(C)nc2-c2cc(OC)ccc2-3)no1 [Compound 341] | < 100 nM |
| COc1ccc2c(c1)-c1nn(CC3CCOC3)cc1Cc1c(-c3noc(C(C)(C)OC)n3)ncn1-2 (centres unmarked) [Compound 374] | < 100 nM |
| COc1ccc2c(c1)-c1nn(C)cc1Cc1c(-c3noc(C4(C)COC4)n3)ncn1-2 [Compound 317] | < 100 nM |
| CC(C)(C)C#Cc1ncn2c1Cc1cn(Cc3ccccc3)nc1-c1cc(Cl)ccc1-2 [Compound 92] | < 100 nM |
| COc1ccc2c(c1)-c1nn(C)cc1Cc1c(-c3nnc(C4COCCO4)o3)ncn1-2 (centres unmarked) [Compound 325] | < 100 nM |
| COc1cccc(Cn2cc(-c3ncn4c3Cc3cn(C5CCOC5)nc3-c3cc(Cl)ccc3-4)cn2)n1 (centres unmarked) [Compound 338] | < 100 nM |
| COc1ccc2c(c1)-c1[nH]ncc1Cc1c(-c3cnn(C)c3)ncn1-2 [Compound 82] | 100 to 1000 nM |
| CCn1cc2c(n1)-c1cc(OC)ccc1-n1cnc(-c3nc(CN(C)C)no3)c1C2 [Compound 241] | < 100 nM |
| COc1ccc2c(c1)-c1nn(C)cc1Cc1c(-c3nc(COC4CCOC4)co3)ncn1-2 (centres unmarked) [Compound 273] | < 100 nM |

Same assay, conditions: ranges of the column heads; [3H]Ro15-1788, Ltk cell membranes

| Ki | SMILES |
| --- | --- |
| < 100 nM | COc1ccc2c(c1)-c1[nH]ncc1Cc1c(-c3nc(C)no3)ncn1-2 [Compound 9] |
| < 100 nM | COc1ccc2c(c1)-c1nn(CC3COC3)cc1Cc1c(-c3nc(C4CC4)no3)ncn1-2 [Compound 226] |
| < 100 nM | CC(=O)N(C)Cc1noc(-c2ncn3c2Cc2cn(C)nc2-c2cc(Cl)ccc2-3)n1 [Compound 386] |
| < 100 nM | COc1ccc2c(c1)-c1nn(C)cc1Cc1c(-c3nc(COC4CCOC4)no3)ncn1-2 (centres unmarked) [Compound 316] |
| > 1000 nM | COc1ccc2c(c1)-c1oncc1Cc1c(-c3nc(CC(C)C)no3)ncn1-2 [Compound 67] |
| < 100 nM | Cn1cc2c(n1)-c1cc(Cl)ccc1-n1cnc(-c3nc(COC4CCOCC4)co3)c1C2 [Compound 346] |
| 100 to 1000 nM | C[C@@H]1COC(c2ncn3c2Cc2cnn(Cc4ccccc4)c2-c2cc(Cl)ccc2-3)=N1 [Compound 12] |
| > 1000 nM | COc1ccc2c(c1)-c1oncc1Cc1c(C3=N[C@@H](c4ccccc4)CO3)ncn1-2 [Compound 48] |
| > 1000 nM | C#Cc1ncn2c1Cc1cnoc1-c1cc(OC)ccc1-2 [Compound 51] |
| > 1000 nM | COc1ccc2c(c1)-c1oncc1Cc1c(-c3nc(C)no3)ncn1-2 [Compound 42] |
| > 1000 nM | Cc1noc(-c2cnc3n2CC(=O)Nc2cc(Cl)ccc2-3)n1 [Compound 26] |
| > 1000 nM | Cc1noc(-c2ncn3c2Cc2cnoc2-c2cc(Cl)ccc2-3)n1 [Compound 69] |
| 100 to 1000 nM | COc1ccc2c(c1)-c1c(cnn1C)Cc1c(-c3nc(C)no3)ncn1-2 [Compound 18] |

| SMILES | Ki |
| --- | --- |
| Clc1ccc2c(c1)-c1c(cnn1Cc1ccccc1)Cc1c(C3=N[C@@H](c4ccccc4)CO3)ncn1-2 [Compound 6] | > 1000 nM |

These compounds were tested against T1, GABAA R (α5β2γ2) (Homo sapiens, UniProt P18507+P31644) (assay: Positive allosteric modulator activity: potentiation of EC20 GABA current in oocytes). Conditions: read-out: GABA α5 Functional Data: potentiation.
T1 construct: expressed in transfected cells
Format: cell-based
Method: On day 1, 1 ng/32 nL of GABAA α5β2γ2 cDNA was injected into one oocyte. Test starts on day 2. The cDNA injected to the oocytes was a mix of alpha, beta and gamma, their ratio is 1:1:10 (by weight) and the total weight of the mixed 3 subunits to be injected in one oocyte was 1 ng in 32 nl volume. The injected oocytes can also be tested on day 3. In such case, the cDNA amount injected to the oocytes should be reduced by 20%.
Compounds of the present disclosure were tested using the following procedures.
8 oocytes were placed in 8 chambers of OpusXpress and superfused with Modified Barth's Saline (MBS) at 3 mL/min. Glass electrodes back-filled with 3M KCl (0.5-3 megaohms) were used. Membrane potential of oocytes was voltage-clamped at −60 mV. • 2).
Control Test (Diazepam or Methyl 3,5-Diphenylpyridazine-4-Carboxylate) • 1). New oocytes was used to run new test. • 2). […] Oocytes were washed with MBS for 5-10 min. • 4). […] Itest was divided by IGABA to obtain potentiation (%).
Test Compounds at Multiple Doses • 1). Repeat the above steps 1), 2) and 3) in the control test. • 2). […] Divide Itest by IGABA to obtain potentiation (%). • 3). Discard all tested oocytes, new oocytes were used and the above steps 1) and 2) were repeated to test second concentration of the same compound. Each oocyte was used for only one concentration test for a single test compound. The steps were repeated for other test compounds.

T1 sequence (P31644 32-462): as the sequence (P31644 32-462) above
T1 sequence (P47870 25-512 partner limits assumed): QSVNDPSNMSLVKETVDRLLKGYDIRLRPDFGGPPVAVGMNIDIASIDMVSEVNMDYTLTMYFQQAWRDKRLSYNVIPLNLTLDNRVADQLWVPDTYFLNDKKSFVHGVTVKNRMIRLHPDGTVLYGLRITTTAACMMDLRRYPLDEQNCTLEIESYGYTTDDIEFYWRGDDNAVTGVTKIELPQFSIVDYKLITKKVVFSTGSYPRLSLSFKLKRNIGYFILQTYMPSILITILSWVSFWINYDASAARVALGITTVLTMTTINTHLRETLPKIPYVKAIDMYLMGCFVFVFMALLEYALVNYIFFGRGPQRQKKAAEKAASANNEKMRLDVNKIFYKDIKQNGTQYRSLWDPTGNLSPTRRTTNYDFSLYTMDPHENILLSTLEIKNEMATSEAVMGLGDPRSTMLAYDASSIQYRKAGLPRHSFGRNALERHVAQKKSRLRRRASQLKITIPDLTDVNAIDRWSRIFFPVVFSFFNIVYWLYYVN
T1 sequence (P18507 40-475): as the sequence (P18507 40-475) above

| activation at 0.1 µM | SMILES |
| --- | --- |
| 5 to 20% | COc1ccc2c(c1)-c1[nH]ncc1Cc1c(-c3nc(C)no3)ncn1-2 [Compound 9] |
| 5 to 20% | COc1ccc2c(c1)-c1nn(CC3COC3)cc1Cc1c(-c3nc(C4CC4)no3)ncn1-2 [Compound 226] |

Same assay, conditions: read-out: GABA α5 Functional Data: potentiation, @ 100 nM, EC20 GABA; ranges of the column heads

| SMILES | activation at 0.1 µM |
| --- | --- |
| Cc1noc(-c2ncn3c2Cc2cn(C(C)C)nc2-c2cc(Cl)ccc2-3)n1 [Compound 160] | 20 to 50% |
| COc1ccc2c(c1)-c1nn(C)cc1Cc1c(-c3nc(C4CCOCC4)no3)ncn1-2 [Compound 220] | 20 to 50% |
| COc1ccc2c(c1)-c1[nH]ncc1Cc1c(-c3nc(C4CCOC4)no3)ncn1-2 (centres unmarked) [Compound 100] | 5 to 20% |
| COCc1nc(-c2ncn3c2Cc2cn(C)nc2-c2cc(Cl)ccc2-3)no1 [Compound 155] | 20 to 50% |
| COc1ccc2c(c1)-c1[nH]ncc1Cc1c(C#Cc3cccnc3)ncn1-2 [Compound 91] | 5 to 20% |
| Clc1ccc2c(c1)-c1[nH]ncc1Cc1c(C#Cc3cccnc3)ncn1-2 [Compound 64] | > 50% |
| COc1ccc2c(c1)-c1nn(C)cc1Cc1c(-c3ncc(C)o3)ncn1-2 [Compound 286] | 5 to 20% |

Reference: US20240132513A1, “BENZAZEPINE DERIVATIVES, COMPOSITIONS, AND METHODS FOR TREATING COGNITIVE IMPAIRMENT” (AGENEBIO, INC., priority 2022, published 2024)
